According to patent publication US8143288B2, “Inhibitors of HCV replication” (priority 2005, dated 2012):

The compounds below were run on HCV 1b-377-neo replicon cells (assay: HCV replicon FRET assay). Settings: Hepatitis C virus; HCV replicon; read-out: Activity (EC50).
Format: cell-based
With `O=C(Nc1ccc(/C=C/c2ccc(NC(=O)[C@@H]3CCCN3C(=O)c3cnccn3)cc2)cc1)[C@@H]1CCCN1C(=O)c1cnccn1` [Example 178] the EC50 was 1000 to 10000 nM. `O=C(Nc1ccc(/C=C/c2ccc(NC(=O)[C@@H]3CCCN3C(=O)c3nccn3Cc3ccccc3)cc2)cc1)[C@@H]1CCCN1C(=O)c1nccn1Cc1ccccc1` [Example 179] showed an EC50 of 1000 to 10000 nM. `O=C(Nc1ccc(/C=C/c2ccc(NC(=O)[C@@H]3CCCN3C(=O)c3nc4ccccc4[nH]3)cc2)cc1)[C@@H]1CCCN1C(=O)c1nc2ccccc2[nH]1` [Example 180] was tested, and the EC50 was 1000 to 10000 nM. `O=C(Nc1ccc(/C=C/c2ccc(NC(=O)[C@@H]3CCCN3C(=O)Cc3cccc4ccccc34)cc2)cc1)[C@@H]1CCCN1C(=O)Cc1cccc2ccccc12` [Example 181] gave an EC50 of 100 to 1000 nM. For `O=C(Nc1ccc(/C=C/c2ccc(NC(=O)[C@@H]3CCCN3C(=O)c3ncccc3OCc3ccccc3)cc2)cc1)[C@@H]1CCCN1C(=O)c1ncccc1OCc1ccccc1` [Example 183], the EC50 was 1000 to 10000 nM. `O=C(Nc1ccc(/C=C/c2ccc(NC(=O)[C@@H]3CCCN3C(=O)c3ncoc3-c3ccccc3)cc2)cc1)[C@@H]1CCCN1C(=O)c1ncoc1-c1ccccc1` [Example 184] showed an EC50 of 100 to 1000 nM. With `Cc1nc(-c2cccnc2)sc1C(=O)N1CCC[C@H]1C(=O)Nc1ccc(/C=C/c2ccc(NC(=O)[C@@H]3CCCN3C(=O)c3sc(-c4cccnc4)nc3C)cc2)cc1` [Example 185] the EC50 was 1000 to 10000 nM. For `CC(C)c1sc(Cl)nc1C(=O)N1CCC[C@H]1C(=O)Nc1ccc(/C=C/c2ccc(NC(=O)[C@@H]3CCCN3C(=O)c3nc(Cl)sc3C(C)C)cc2)cc1` [Example 186], the EC50 was 100 to 1000 nM. In the case of `Cc1nc2ccccn2c1C(=O)N1CCC[C@H]1C(=O)Nc1ccc(/C=C/c2ccc(NC(=O)[C@@H]3CCCN3C(=O)c3c(C)nc4ccccn34)cc2)cc1` [Example 187], the EC50 is reported as 0.1 to 90 nM. Work on `CCc1ccnc(C(=O)N2CCC[C@H]2C(=O)Nc2ccc(/C=C/c3ccc(NC(=O)[C@@H]4CCCN4C(=O)c4cc(CC)ccn4)cc3)cc2)c1` [Example 188] yielded an EC50 of 100 to 1000 nM. Work on `COC(=O)N1c2ccccc2C[C@H]1C(=O)N1CCC[C@H]1C(=O)Nc1ccc(/C=C/c2ccc(NC(=O)[C@@H]3CCCN3C(=O)[C@@H]3Cc4ccccc4N3C(=O)OC)cc2)cc1` [Example 189] yielded an EC50 of 1000 to 10000 nM. `CC(C)c1scnc1C(=O)N1CCC[C@H]1C(=O)Nc1ccc(/C=C/c2ccc(NC(=O)[C@@H]3CCCN3C(=O)c3ncsc3C(C)C)cc2)cc1` [Example 190] was tested, and the EC50 was 100 to 1000 nM. For `O=C(Nc1ccc(/C=C/c2ccc(NC(=O)[C@@H]3CCCN3C(=O)c3cccnc3Cl)cc2)cc1)[C@@H]1CCCN1C(=O)c1cccnc1Cl` [Example 191], the EC50 was 1000 to 10000 nM. Compound `CSc1ncccc1C(=O)N1CCC[C@H]1C(=O)Nc1ccc(/C=C/c2ccc(NC(=O)[C@@H]3CCCN3C(=O)c3cccnc3SC)cc2)cc1` [Example 192] has an EC50 of 100 to 1000 nM. In the case of `COc1ccc(C(=O)N2CCC[C@H]2C(=O)Nc2ccc(/C=C/c3ccc(NC(=O)[C@@H]4CCCN4C(=O)c4ccc(OC)nc4OC)cc3)cc2)c(OC)n1` [Example 193], the EC50 is reported as 1000 to 10000 nM. In the case of `Cc1nc(C(F)(F)F)ccc1C(=O)N1CCC[C@H]1C(=O)Nc1ccc(/C=C/c2ccc(NC(=O)[C@@H]3CCCN3C(=O)c3ccc(C(F)(F)F)nc3C)cc2)cc1` [Example 194], the EC50 is reported as 100 to 1000 nM. Compound `O=C(Nc1ccc(/C=C/c2ccc(NC(=O)[C@@H]3CCCN3C(=O)c3ccc(C(F)(F)F)nc3Cl)cc2)cc1)[C@@H]1CCCN1C(=O)c1ccc(C(F)(F)F)nc1Cl` [Example 195] has an EC50 of 1000 to 10000 nM. Work on `O=C(Nc1ccc(/C=C/c2ccc(NC(=O)[C@@H]3CCCN3C(=O)c3cccnc3Sc3ccccc3)cc2)cc1)[C@@H]1CCCN1C(=O)c1cccnc1Sc1ccccc1` [Example 196] yielded an EC50 of 1000 to 10000 nM. Work on `CCc1ccncc1C(=O)N1CCC[C@H]1C(=O)Nc1ccc(/C=C/c2ccc(NC(=O)[C@@H]3CCCN3C(=O)c3cnccc3CC)cc2)cc1` [Example 197] yielded an EC50 of 100 to 1000 nM. Compound `Cc1ccsc1C(=O)N1CCC[C@H]1C(=O)Nc1ccc(/C=C/c2ccc(NC(=O)[C@@H]3CCCN3C(=O)c3sccc3C)cc2)cc1` [Example 198] has an EC50 of 100 to 1000 nM. `Cc1nnsc1C(=O)N1CCC[C@H]1C(=O)Nc1ccc(/C=C/c2ccc(NC(=O)[C@@H]3CCCN3C(=O)c3snnc3C)cc2)cc1` [Example 199] showed an EC50 of 0.1 to 90 nM. `Cc1ccoc1C(=O)N1CCC[C@H]1C(=O)Nc1ccc(/C=C/c2ccc(NC(=O)[C@@H]3CCCN3C(=O)c3occc3C)cc2)cc1` [Example 200] showed an EC50 of 100 to 1000 nM. Work on `Cc1nocc1C(=O)N1CCC[C@H]1C(=O)Nc1ccc(/C=C/c2ccc(NC(=O)[C@@H]3CCCN3C(=O)c3conc3C)cc2)cc1` [Example 201] yielded an EC50 of 0.1 to 90 nM. In the case of `Cc1noc(C)c1C(=O)N1CCC[C@H]1C(=O)Nc1ccc(/C=C/c2ccc(NC(=O)[C@@H]3CCCN3C(=O)c3c(C)noc3C)cc2)cc1` [Example 202], the EC50 is reported as 100 to 1000 nM. In the case of `Cc1nc(C)c(C(=O)N2CCC[C@H]2C(=O)Nc2ccc(/C=C/c3ccc(NC(=O)[C@@H]4CCCN4C(=O)c4sc(C)nc4C)cc3)cc2)s1` [Example 203], the EC50 is reported as 100 to 1000 nM. `Cc1onc(-c2ccccc2)c1C(=O)N1CCC[C@H]1C(=O)Nc1ccc(/C=C/c2ccc(NC(=O)[C@@H]3CCCN3C(=O)c3c(-c4ccccc4)noc3C)cc2)cc1` [Example 204] was tested, and the EC50 was 0.1 to 90 nM. `CCc1cccc(CC)c1C(=O)N1CCC[C@H]1C(=O)Nc1ccc(/C=C/c2ccc(NC(=O)[C@@H]3CCCN3C(=O)c3c(CC)cccc3CC)cc2)cc1` [Example 205] was tested, and the EC50 was 1000 to 10000 nM. Compound `CCc1cccc(C)c1C(=O)N1CCC[C@H]1C(=O)Nc1ccc(/C=C/c2ccc(NC(=O)[C@@H]3CCCN3C(=O)c3c(C)cccc3CC)cc2)cc1` [Example 206] has an EC50 of 1000 to 10000 nM. `Cn1cc(C(=O)N2CCC[C@H]2C(=O)Nc2ccc(/C=C/c3ccc(NC(=O)[C@@H]4CCCN4C(=O)c4cn(C)c5ccccc45)cc3)cc2)c2ccccc21` [Example 207] gave an EC50 of 100 to 1000 nM. With `CC(C)(C)OC(=O)n1cc(C(=O)N2CCC[C@H]2C(=O)Nc2ccc(/C=C/c3ccc(NC(=O)[C@@H]4CCCN4C(=O)c4cn(C(=O)OC(C)(C)C)c5ccccc45)cc3)cc2)c2ccccc21` [Example 208] the EC50 was 1000 to 10000 nM. Compound `O=C(Nc1ccc(/C=C/c2ccc(NC(=O)[C@@H]3CCCN3C(=O)c3c[nH]c4ccccc34)cc2)cc1)[C@@H]1CCCN1C(=O)c1c[nH]c2ccccc12` [Example 209] has an EC50 of 100 to 1000 nM. With `O=C(Nc1ccc(/C=C/c2ccc(NC(=O)[C@@H]3CCCN3C(=O)c3c[nH]cn3)cc2)cc1)[C@@H]1CCCN1C(=O)c1c[nH]cn1` [Example 210] the EC50 was 1000 to 10000 nM. `Cn1cncc1C(=O)N1CCC[C@H]1C(=O)Nc1ccc(/C=C/c2ccc(NC(=O)[C@@H]3CCCN3C(=O)c3cncn3C)cc2)cc1` [Example 211] showed an EC50 of 0.1 to 90 nM. For `O=C(Nc1ccc(/C=C/c2ccc(NC(=O)[C@@H]3CCCN3C(=O)c3n[nH]c4ccccc34)cc2)cc1)[C@@H]1CCCN1C(=O)c1n[nH]c2ccccc12` [Example 212], the EC50 was 0.1 to 90 nM. `Cc1cccc(-n2cnc(C(=O)N3CCC[C@H]3C(=O)Nc3ccc(/C=C/c4ccc(NC(=O)[C@@H]5CCCN5C(=O)c5cn(-c6cccc(C)n6)cn5)cc4)cc3)c2)n1` [Example 213] was tested, and the EC50 was 1000 to 10000 nM. For `Cc1nc2sccn2c1C(=O)N1CCC[C@H]1C(=O)Nc1ccc(/C=C/c2ccc(NC(=O)[C@@H]3CCCN3C(=O)c3c(C)nc4sccn34)cc2)cc1` [Example 214], the EC50 was 0.1 to 90 nM. `O=C(Nc1ccc(/C=C/c2ccc(NC(=O)[C@@H]3C=CCN3C(=O)Cc3ccccn3)cc2)cc1)[C@@H]1C=CCN1C(=O)Cc1ccccn1` [Example 215] was tested, and the EC50 was 0.1 to 90 nM. `CC(=O)N1CC=C[C@H]1C(=O)Nc1ccc(/C=C/c2ccc(NC(=O)[C@@H]3C=CCN3C(=O)Cc3ccccn3)cc2)cc1` [Example 216] was tested, and the EC50 was 0.1 to 90 nM.
